Results as given in patent US9932355B2, “2,5,6,7-tetrasubstituted thiazolo[4,5-b]pyridine derivatives and use thereof” (KYUNGPOOK NATIONAL UNIVERSITY INDUSTRY-ACADEMIC COOPERATION …, priority 2014, dated 2018).

System: CLP-induced sepsis mouse model
Test: Survival rate of CLP-induced sepsis mouse model
Format: in vivo
Conditions: male ICR mice, CLP surgery; tail intravenous injection 12 and 50 hours after surgery; FIG. 1
Procedure: An anti-inflammation effect of the prepared compound was tested by a survival rate of the sepsis mouse model induced by peritonitis. A CLP-induced sepsis mouse model is an in vivo method for investigating an anti-inflammation action, and the manufacturing method of the mouse model is a widely used experiment method [Wang H, Nat. Med., 2004, 10, 1216-1221]. 40 six-week-old male ICR mice were divided into 10 mice per each group, and the survival rate was observed.
First, after the male mouse was anesthetized by respiration using isoflurane, the abdomen of the mouse was cut in the middle by approximately 2 cm to take out an appendix adjacent to intestines, and the appendix was tied up at a part apart from 0.5 mm from the end of the appendix with a 3.0-silk suture, pierced once with a 22-gauge needle, and sutured the cut part with a 4.0 silk suture. An abdomen of a sham mouse was cut and sutured without tie-up or piercing of the appendix, and after 12 and 50 hours of the surgery, the prepared compound was administered by mouse tail intravenous injection.

With COc1ccc(CNc2nc3nc4c(c(-c5ccc(OC)cc5)c3s2)CCCC4)cc1 [Compound 1-65, N-(4-methoxybenzyl)-9-(4-methoxyphenyl)-5,6,7,8-tetrahydrothiazolo[4,5-b]quinoline-2-amine] the “survival rate increased, compared to the only CLP-treated group” value was 60%.
